# Measured values: PubChem BioAssay (NCI)
#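 Growth conditions: 96-well plates. Treatment: test compound, 48 hours, 5 concentrations. Analysis: linear interpolation between bracketing concentrations; unreached endpoints set to highest concentration. TGI denotes the concentration required for complete inhibition of growth.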
# Legend:
# Test in all cases: NCI tumour cell line growth inhibition, 48 h
# 786-0 renal = tested on: 786-0 renal
# A498 renal = tested on: A498 renal
# A549 NSCLC = tested on: A549 NSCLC
# ACHN renal = tested on: ACHN renal
# BT-549 breast = tested on: BT-549 breast
# CAKI-1 renal = tested on: CAKI-1 renal
# CCRF-CEM leukemia = tested on: CCRF-CEM leukemia
# COLO 205 colon = tested on: COLO 205 colon
# DU-145 prostate = tested on: DU-145 prostate
# EKVX NSCLC = tested on: EKVX NSCLC
# HCC-2998 colon = tested on: HCC-2998 colon
# HCT-116 colon = tested on: HCT-116 colon
# HCT-15 colon = tested on: HCT-15 colon
# HL-60(TB) leukemia = tested on: HL-60(TB) leukemia
# HOP-62 NSCLC = tested on: HOP-62 NSCLC
# HOP-92 NSCLC = tested on: HOP-92 NSCLC
# HS 578T breast = tested on: HS 578T breast
# HT29 colon = tested on: HT29 colon
# IGROV1 ovarian = tested on: IGROV1 ovarian
# K-562 leukemia = tested on: K-562 leukemia
# KM12 colon = tested on: KM12 colon
# LOX IMVI melanoma = tested on: LOX IMVI melanoma
# M14 melanoma = tested on: M14 melanoma
# MALME-3M melanoma = tested on: MALME-3M melanoma
# MCF7 breast = tested on: MCF7 breast
# MDA-MB-231 breast = tested on: MDA-MB-231 breast
# MDA-MB-435 = tested on: MDA-MB-435
# MDA-N = tested on: MDA-N
# MOLT-4 leukemia = tested on: MOLT-4 leukemia
# NCI-H226 lung = tested on: NCI-H226 lung
# NCI-H23 lung = tested on: NCI-H23 lung
# NCI-H460 lung = tested on: NCI-H460 lung
# NCI-H522 lung = tested on: NCI-H522 lung
# NCI/ADR-RES ovarian = tested on: NCI/ADR-RES ovarian
# OVCAR-3 ovarian = tested on: OVCAR-3 ovarian
# OVCAR-4 ovarian = tested on: OVCAR-4 ovarian
# OVCAR-5 ovarian = tested on: OVCAR-5 ovarian
# OVCAR-8 ovarian = tested on: OVCAR-8 ovarian
# PC-3 prostate = tested on: PC-3 prostate
# RPMI-8226 leukemia = tested on: RPMI-8226 leukemia
# RXF 393 renal = tested on: RXF 393 renal
# SF-268 CNS = tested on: SF-268 CNS
# SF-539 CNS = tested on: SF-539 CNS
# SK-MEL-2 melanoma = tested on: SK-MEL-2 melanoma
# SK-MEL-28 melanoma = tested on: SK-MEL-28 melanoma
# SK-MEL-5 melanoma = tested on: SK-MEL-5 melanoma
# SK-OV-3 ovarian = tested on: SK-OV-3 ovarian
# SN12C renal = tested on: SN12C renal
# SNB-19 CNS = tested on: SNB-19 CNS
# SNB-75 CNS = tested on: SNB-75 CNS
# SR leukemia = tested on: SR leukemia
# SW-620 colon = tested on: SW-620 colon
# T-47D breast = tested on: T-47D breast
# TK-10 renal = tested on: TK-10 renal
# U251 CNS = tested on: U251 CNS
# UACC-257 melanoma = tested on: UACC-257 melanoma
# UACC-62 melanoma = tested on: UACC-62 melanoma
# UO-31 renal = tested on: UO-31 renal
# SF-295 CNS = tested on: SF-295 CNS
smiles,measurement,setting,value
CC(C)=CCS(=O)c1ccccc1NC1=CC(=O)CC(C)(C)C1 (centres undefined),TGI,786-0 renal,> 100 µM
same,TGI,A498 renal,> 100 µM
same,TGI,A549 NSCLC,> 100 µM
same,TGI,ACHN renal,> 100 µM
same,TGI,BT-549 breast,> 100 µM
same,TGI,CAKI-1 renal,> 100 µM
same,TGI,CCRF-CEM leukemia,> 100 µM
same,TGI,COLO 205 colon,> 100 µM
same,TGI,DU-145 prostate,> 100 µM
same,TGI,EKVX NSCLC,> 100 µM
same,TGI,HCC-2998 colon,> 100 µM
same,TGI,HCT-116 colon,> 100 µM
same,TGI,HCT-15 colon,28.7 µM
same,TGI,HL-60(TB) leukemia,> 100 µM
same,TGI,HOP-62 NSCLC,0.855 µM
same,TGI,HOP-92 NSCLC,> 100 µM
same,TGI,HS 578T breast,> 100 µM
same,TGI,HT29 colon,> 100 µM
same,TGI,IGROV1 ovarian,> 100 µM
same,TGI,K-562 leukemia,> 100 µM
same,TGI,KM12 colon,> 100 µM
same,TGI,LOX IMVI melanoma,> 100 µM
same,TGI,M14 melanoma,> 100 µM
same,TGI,MALME-3M melanoma,> 100 µM
same,TGI,MCF7 breast,> 100 µM
same,TGI,MDA-MB-231 breast,> 100 µM
same,TGI,MDA-MB-435,> 100 µM
same,TGI,MDA-N,> 100 µM
same,TGI,MOLT-4 leukemia,> 100 µM
same,TGI,NCI-H226 lung,> 100 µM
same,TGI,NCI-H23 lung,> 100 µM
same,TGI,NCI-H460 lung,> 100 µM
same,TGI,NCI-H522 lung,> 100 µM
same,TGI,NCI/ADR-RES ovarian,> 100 µM
same,TGI,OVCAR-3 ovarian,> 100 µM
same,TGI,OVCAR-4 ovarian,> 100 µM
same,TGI,OVCAR-5 ovarian,> 100 µM
same,TGI,OVCAR-8 ovarian,> 100 µM
same,TGI,PC-3 prostate,> 100 µM
same,TGI,RPMI-8226 leukemia,> 100 µM
same,TGI,RXF 393 renal,> 100 µM
same,TGI,SF-268 CNS,> 100 µM
same,TGI,SF-539 CNS,> 100 µM
same,TGI,SK-MEL-2 melanoma,> 100 µM
same,TGI,SK-MEL-28 melanoma,> 100 µM
same,TGI,SK-MEL-5 melanoma,> 100 µM
same,TGI,SK-OV-3 ovarian,> 100 µM
same,TGI,SN12C renal,> 100 µM
same,TGI,SNB-19 CNS,> 100 µM
same,TGI,SNB-75 CNS,> 100 µM
same,TGI,SR leukemia,> 100 µM
same,TGI,SW-620 colon,> 100 µM
same,TGI,T-47D breast,> 100 µM
same,TGI,TK-10 renal,> 100 µM
same,TGI,U251 CNS,2.42 µM
same,TGI,UACC-257 melanoma,> 100 µM
same,TGI,UACC-62 melanoma,> 100 µM
same,TGI,UO-31 renal,> 100 µM
COc1ccc2c3c1O[C@H]1C(O)CCC4(O)[C@@H](C2)NCC[C@]314 (some centres undefined),TGI,786-0 renal,> 100 µM
same,TGI,A498 renal,> 100 µM
same,TGI,A549 NSCLC,> 100 µM
same,TGI,ACHN renal,> 100 µM
same,TGI,BT-549 breast,> 100 µM
same,TGI,CAKI-1 renal,> 100 µM
same,TGI,CCRF-CEM leukemia,> 100 µM
same,TGI,COLO 205 colon,> 100 µM
same,TGI,DU-145 prostate,> 100 µM
same,TGI,EKVX NSCLC,> 100 µM
same,TGI,HCT-116 colon,> 100 µM
same,TGI,HCT-15 colon,> 100 µM
same,TGI,HL-60(TB) leukemia,> 100 µM
same,TGI,HOP-62 NSCLC,> 100 µM
same,TGI,HOP-92 NSCLC,> 100 µM
same,TGI,HS 578T breast,> 100 µM
same,TGI,HT29 colon,> 100 µM
same,TGI,IGROV1 ovarian,> 100 µM
same,TGI,K-562 leukemia,> 100 µM
same,TGI,KM12 colon,> 100 µM
same,TGI,LOX IMVI melanoma,> 100 µM
same,TGI,M14 melanoma,> 100 µM
same,TGI,MALME-3M melanoma,> 100 µM
same,TGI,MCF7 breast,> 100 µM
same,TGI,MDA-MB-231 breast,> 100 µM
same,TGI,MDA-MB-435,> 100 µM
same,TGI,MDA-N,> 100 µM
same,TGI,MOLT-4 leukemia,> 100 µM
same,TGI,NCI-H226 lung,> 100 µM
same,TGI,NCI-H23 lung,> 100 µM
same,TGI,NCI-H522 lung,> 100 µM
same,TGI,NCI/ADR-RES ovarian,> 100 µM
same,TGI,OVCAR-3 ovarian,> 100 µM
same,TGI,OVCAR-4 ovarian,> 100 µM
same,TGI,OVCAR-5 ovarian,> 100 µM
same,TGI,OVCAR-8 ovarian,> 100 µM
same,TGI,PC-3 prostate,> 100 µM
same,TGI,RPMI-8226 leukemia,> 100 µM
same,TGI,SF-268 CNS,> 100 µM
same,TGI,SF-295 CNS,> 100 µM
same,TGI,SF-539 CNS,> 100 µM
same,TGI,SK-MEL-2 melanoma,> 100 µM
same,TGI,SK-MEL-28 melanoma,> 100 µM
same,TGI,SK-MEL-5 melanoma,> 100 µM
same,TGI,SK-OV-3 ovarian,> 100 µM
same,TGI,SN12C renal,> 100 µM
same,TGI,SNB-19 CNS,> 100 µM
same,TGI,SR leukemia,> 100 µM
same,TGI,SW-620 colon,> 100 µM
same,TGI,T-47D breast,> 100 µM
same,TGI,TK-10 renal,> 100 µM
same,TGI,U251 CNS,> 100 µM
same,TGI,UACC-257 melanoma,> 100 µM
same,TGI,UACC-62 melanoma,> 100 µM
same,TGI,UO-31 renal,> 100 µM
CCN(CC)/C(Cl)=C(Cl)\C(=C1\Nc2ccc(OC)cc21)[N+](=O)[O-],TGI,786-0 renal,> 100 µM
same,TGI,A498 renal,> 100 µM
same,TGI,A549 NSCLC,> 100 µM
same,TGI,ACHN renal,> 100 µM
same,TGI,BT-549 breast,> 100 µM
same,TGI,CAKI-1 renal,> 100 µM
same,TGI,CCRF-CEM leukemia,93.6 µM
same,TGI,COLO 205 colon,> 100 µM
same,TGI,DU-145 prostate,> 100 µM
same,TGI,EKVX NSCLC,> 100 µM
same,TGI,HCC-2998 colon,> 100 µM
same,TGI,HCT-116 colon,> 100 µM
same,TGI,HCT-15 colon,> 100 µM
same,TGI,HL-60(TB) leukemia,> 100 µM
same,TGI,HOP-62 NSCLC,> 100 µM
same,TGI,HOP-92 NSCLC,> 100 µM
same,TGI,HS 578T breast,> 100 µM
same,TGI,HT29 colon,> 100 µM
same,TGI,IGROV1 ovarian,> 100 µM
same,TGI,K-562 leukemia,> 100 µM
same,TGI,KM12 colon,> 100 µM
same,TGI,LOX IMVI melanoma,> 100 µM
same,TGI,M14 melanoma,> 100 µM
same,TGI,MALME-3M melanoma,> 100 µM
same,TGI,MCF7 breast,> 100 µM
same,TGI,MDA-MB-231 breast,> 100 µM
same,TGI,MDA-MB-435,> 100 µM
same,TGI,MDA-N,> 100 µM
same,TGI,MOLT-4 leukemia,85.2 µM
same,TGI,NCI-H226 lung,69.2 µM
same,TGI,NCI-H23 lung,> 100 µM
same,TGI,NCI-H460 lung,> 100 µM
same,TGI,NCI-H522 lung,67.3 µM
same,TGI,NCI/ADR-RES ovarian,> 100 µM
same,TGI,OVCAR-3 ovarian,57.3 µM
same,TGI,OVCAR-4 ovarian,> 100 µM
same,TGI,OVCAR-5 ovarian,> 100 µM
same,TGI,OVCAR-8 ovarian,> 100 µM
same,TGI,PC-3 prostate,> 100 µM
same,TGI,RXF 393 renal,72.9 µM
same,TGI,SF-268 CNS,> 100 µM
same,TGI,SF-295 CNS,> 100 µM
same,TGI,SK-MEL-28 melanoma,> 100 µM
same,TGI,SK-MEL-5 melanoma,> 100 µM
same,TGI,SK-OV-3 ovarian,> 100 µM
same,TGI,SN12C renal,> 100 µM
same,TGI,SNB-19 CNS,> 100 µM
same,TGI,SNB-75 CNS,81.8 µM
same,TGI,SR leukemia,65 µM
same,TGI,SW-620 colon,> 100 µM
same,TGI,T-47D breast,> 100 µM
same,TGI,TK-10 renal,> 100 µM
same,TGI,U251 CNS,> 100 µM
same,TGI,UACC-257 melanoma,> 100 µM
same,TGI,UACC-62 melanoma,> 100 µM
same,TGI,UO-31 renal,> 100 µM
